As a reminder, the melting point is the temperature of the solid-liquid transition.

This note sets out measurements from patent US6977262B2, “Dihydropyrazolopyridine compounds and pharmaceutical use thereof” (Mitsubishi Pharma Corporation, priority 2001, dated 2005).

For the molecule `CCCC1=C(C(=O)OCC)C(c2cc3ccccc3o2)c2c[nH]nc2N1.O=C(O)/C=C\C(=O)O` (stereo not shown) [Example 81, Ethyl 4-(benzo[b]furan-2-yl)-4,7-dihydro-6-propyl-2H-pyrazolo[3,4-b]pyridine-5-carboxylate maleate], the melting point was in the range of 123 to 125 °C.
With `COc1ccccc1C1C(C#N)=C(c2cccs2)Nc2n[nH]cc21` (stereo not shown) [Example 242, 5-Cyano-4,7-dihydro-4-(2-methoxyphenyl)-6-(thiophen-2-yl)-2H-pyrazolo[3,4-b]pyridine], the melting point is 215 °C.
The figure for `CCCC1=C(C(=O)OCC)C(c2ccccc2Cl)c2cnn(C(=O)OC(C)(C)C)c2N1` (stereo not shown) [Example 204, Ethyl 1-tert-butoxycarbonyl-4-(2-chlorophenyl)-4,7-dihydro-6-propyl-1H-pyrazolo[3,4-b]pyridine-5-carboxylate] is 112 to 116 °C; for `CCCC1=C(C(=O)OCC)C(c2cccc(C(F)(F)F)c2Cl)c2c[nH]nc2N1` (stereo not shown) [Example 47, Ethyl 4-(2-chloro-3-trifluoromethylphenyl)-4,7-dihydro-6-propyl-2H-pyrazolo[3,4-b]pyridine-5-carboxylate] it is 236 to 238 °C.
The figure for `CCCC1=C(C(=O)OCC)C(c2[nH]cnc2C)c2c[nH]nc2N1` (stereo not shown) [Example 236, Ethyl 4,7-dihydro-4-(4-methyl-1H-imidazol-5-yl)-6-propyl-2H-pyrazolo[3,4-b]pyridine-5-carboxylate] is 219 to 220 °C; for `N#CC1=C(C2CCCN2)Nc2n[nH]cc2C1c1cccc(C#N)c1Br` (stereo not shown) [Example 1068, 4-(2-Bromo-3-cyanophenyl)-5-cyano-6-(pyrrolidin-2-yl)-4,7-dihydro-2H-pyrazolo[3,4-b]pyridine] it is above 240 °C; for `CC(C)(C)OC(=O)N1CCC(C2=C(C#N)C(c3cccc(C#N)c3Br)c3c[nH]nc3N2)CC1` (stereo not shown) [Example 1036, 4-(2-Bromo-3-cyanophenyl)-6-(1-t-butoxycarbonylpiperidin-4-yl)-5-cyano-4,7-dihydro-2H-pyrazolo[3,4-b]pyridine] it is above 270 °C.
For the molecule `C=CCCC(=O)n1cc2c(n1)NC(CCC)=C(C#N)C2c1ccccc1Cl` (stereo not shown) [Example 358, 4-(2-Chlorophenyl)-5-cyano-4,7-dihydro-2-(4-pentenoyl)-6-propyl-2H-pyrazolo[3,4-b]pyridine], the melting point was 176 to 177 °C.
The result for `N#CC1=C(C2CC2)Nc2n[nH]cc2C1c1ccccc1Cl` (stereo not shown) [Example 266, 4-(2-Chlorophenyl)-5-cyano-6-cyclopropyl-4,7-dihydro-2H-pyrazolo[3,4-b]pyridine] reads above 250 °C; that for `CCCC1=C(C(=O)OCC)C(c2cccc3c2OCCC3)c2c[nH]nc2N1` (single isomer, unassigned; (+)) [Example 187, (+)Ethyl 4-(3,4-dihydro-2H-benzopyran-8-yl)-4,7-dihydro-6-propyl-2H-pyrazolo[3,4-b]pyridine-5-carboxylate], 159 to 161 °C.
The figure for `CC(C)(C)OC(=O)N1CCC(C2=C(C#N)C(c3ccccc3Cl)c3c[nH]nc3N2)CC1` (stereo not shown) [Example 1054, 6-(1-t-Butoxycarbonylpiperidin-4-yl)-4-(2-chlorophenyl)-5-cyano-4,7-dihydro-2H-pyrazolo[3,4-b]pyridine] is above 280 °C.
The result for `CCCCC1=C(C(=O)OCC)C(c2cccc3nonc23)c2c[nH]nc2N1` (stereo not shown) [Example 239, Ethyl 4-(2,1,3-benzoxadiazol-4-yl)-6-butyl-4,7-dihydro-2H-pyrazolo[3,4-b]pyridine-5-carboxylate] reads 213 °C; that for `CCCC1=C(C#N)C(c2cccc3oc(C)nc23)c2c[nH]nc2N1` (stereo not shown) [Example 139, 5-Cyano-4,7-dihydro-4-(2-methylbenzoxazol-4-yl)-6-propyl-2H-pyrazolo[3,4-b]pyridine], 208 °C.
